Tests used:
[1] = tested on: T47D (PI3Kα-H1047R) cell line; experiment: HTRF phospho-AKT(S473) cell assay in T47D cells; assay type: cell-based, human
Procedure, shortened: (§1)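 Cells plated overnight (T47D in RPMI/10% FBS/0.2 units/mL insulin; SKBR3 in McCoy's 5A/10% FBS), then given 12-point 1:3 compound series (top 5 μM T47D, 10 μM SKBR3; ≤0.5% DMSO) for 2 h at 37° C. SKBR3 stimulated with 70 ng/ml PDGF-BB for final 15 min. Lysate pAKT(S473) by HTRF; IC50 calculated.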

[2] = tested on: SKBR3 (PI3Kα-Wild Type) cell line; experiment: HTRF phospho-AKT(S473) cell assay in SKBR3 cells; assay type: cell-based, human
Procedure, shortened: as §1

[3] = Homo sapiens; HTRF phospho-AKT(S473), T47D (PI3Kα-H1047R) cells, 2 hours compound incubation
[4] = Homo sapiens, SK-BR-3; HTRF phospho-AKT(S473), SKBR3 (PI3Kα-Wild Type) cells, 2 hours compound incubation, PDGF-BB stimulated
[5] = Homo sapiens; T47D (PI3Kα-H1047R) cells, HTRF phospho-AKT(S473), 2 hours compound incubation
[6] = Homo sapiens, SK-BR-3; SKBR3 (PI3Kα-Wild Type) cells, HTRF phospho-AKT(S473), 2 hours compound incubation, PDGF-BB stimulated

| Structure (SMILES) | IC50 [1, 3] | IC50 [2, 4] | IC50 [1, 5] | IC50 [2, 6] |
| --- | --- | --- | --- | --- |
| Cc1cc([C@@H](C)Nc2ccc(Cl)nc2C(=O)NS(C)(=O)=O)c2nc(N3CCC(c4ccn(C)c(=O)c4)CC3)n(C)c(=O)c2c1 [Compound 319, (R)-6-chloro-3-((1-(3,6-dimethyl-2-(4-(1-methyl-2-oxo-1,2-dihydropyridin-4-yl)piperidin-1-yl)-4-oxo-3,4-dihydroquinazolin-8-yl)ethyl)amino)-N-(methylsulfonyl) picolinamide] | – | – | < 0.25 µM | 1 to 5 µM |
| Cc1cc([C@@H](C)Nc2ccc(Cl)nc2C(=O)NS(C)(=O)=O)c2nc(N3CCC(n4ncc5ccncc54)CC3)n(C)c(=O)c2c1 [Compound 258] | – | – | < 0.25 µM | 1 to 5 µM |
| Cc1cc([C@@H](C)Nc2ccc(Cl)nc2C(=O)NS(C)(=O)=O)c2nc(N3CCC[C@H](c4cnn(C)c4)C3)n(C)c(=O)c2c1 (relative stereo) [Compound 194, 6-chloro-3-(((R)-1-(3,6-dimethyl-2-((R*)-3-(1-methyl-1H-pyrazol-4-yl)piperidin-1-yl)-4-oxo-3,4-dihydroquinazolin-8-yl)ethyl)amino)-N-(methylsulfonyl) picolinamide] | – | – | < 0.25 µM | 1 to 5 µM |
| Cc1cc([C@@H](C)Nc2ccc(Cl)nc2C(=O)NS(C)(=O)=O)c2nc(N3CCC[C@@H](c4ccccn4)C3)n(C)c(=O)c2c1 (relative stereo) [Compound 208, 6-chloro-3-(((R)-1-(3,6-dimethyl-4-oxo-2-((R*)-3-(pyridin-2-yl)piperidin-1-yl)-3,4-dihydroquinazolin-8-yl)ethyl)amino)-N-(methylsulfonyl) picolinamide] | – | – | 0.25 to 0.5 µM | ≥ 5 µM |
| Cc1cc([C@@H](C)Nc2ccc(Cl)nc2C(=O)NS(C)(=O)=O)c2nc(N3Cc4nn(-c5ccccc5C)c(N)c4C3)n(C)c(=O)c2c1 [Compound 350, (R)-3-((1-(2-(3-amino-2-(o-tolyl)-2,6-dihydropyrrolo[3,4-c]pyrazol-5(4H)-yl)-3,6-dimethyl-4-oxo-3,4-dihydroquinazolin-8-yl)ethyl)amino)-6-chloro-N-(methylsulfonyl) picolinamide] | – | – | < 0.25 µM | ≥ 5 µM |
| Cc1cc([C@@H](C)Nc2ccc(Cl)nc2C(=O)NS(C)(=O)=O)c2nc(N3C[C@@H]4[C@H](C3)[C@H]4c3ccc(C#N)cn3)n(C)c(=O)c2c1 [Compound 392, 6-chloro-3-(((R)-1-(2-((1R,5S,6R)-6-(5-cyanopyridin-2-yl)-3-azabicyclo[3.1.0]hexan-3-yl)-3,6-dimethyl-4-oxo-3,4-dihydroquinazolin-8-yl)ethyl)amino)-N-(methylsulfonyl) picolinamide] | – | – | 0.25 to 0.5 µM | 1 to 5 µM |
| Cc1cc([C@@H](C)Nc2ccc(Cl)nc2C(=O)NS(C)(=O)=O)c2nc(N3CCc4nn(CC(F)(F)F)cc4C3)n(C)c(=O)c2c1 [Compound 220, (R)-6-chloro-3-((1-(3,6-dimethyl-4-oxo-2-(2-(2,2,2-trifluoroethyl)-2,4,6,7-tetrahydro-5H-pyrazolo[4,3-c]pyridin-5-yl)-3,4-dihydroquinazolin-8-yl)ethyl)amino)-N-(methylsulfonyl) picolinamide] | – | – | < 0.25 µM | 1 to 5 µM |
| Cc1cc([C@@H](C)Nc2ccc(Cl)nc2C(=O)NS(C)(=O)=O)c2nc(N3CC[C@H](Oc4cc[nH]n4)C3)n(C)c(=O)c2c1 [Compound 362, 3-(((R)-1-(2-((S)-3-((1H-pyrazol-3-yl)oxy)pyrrolidin-1-yl)-3,6-dimethyl-4-oxo-3,4-dihydroquinazolin-8-yl)ethyl)amino)-6-chloro-N-(methylsulfonyl) picolinamide] | – | – | < 0.25 µM | 1 to 5 µM |

The next lines start with the values.

| IC50 [1, 3] | IC50 [2, 4] | IC50 [1, 5] | IC50 [2, 6] | Structure (SMILES) |
| --- | --- | --- | --- | --- |
| 0.25 to 0.5 µM | 1 to 5 µM | – | – | Cc1cc([C@@H](C)Nc2ccc(Cl)nc2C(=O)NS(C)(=O)=O)c2nc(N3CC[C@@H](c4ccnc(C)n4)C3)n(C)c(=O)c2c1 (relative stereo) [Compound 600, 6-chloro-3-(((R)-1-(3,6-dimethyl-2-((R*)-3-(2-methylpyrimidin-4-yl)pyrrolidin-1-yl)-4-oxo-3,4-dihydroquinazolin-8-yl)ethyl)amino)-N-(methylsulfonyl) picolinamide] |
| – | – | 0.25 to 0.5 µM | ≥ 5 µM | Cc1cc([C@@H](C)Nc2ccc(Cl)nc2C(=O)NS(C)(=O)=O)c2nc(C3CCN(c4nn(C)cc4F)CC3)n(C)c(=O)c2c1 [Compound 429, (R)-6-chloro-3-((1-(2-(1-(4-fluoro-1-methyl-1H-pyrazol-3-yl)piperidin-4-yl)-3,6-dimethyl-4-oxo-3,4-dihydroquinazolin-8-yl)ethyl)amino)-N-(methylsulfonyl) picolinamide] |
| 0.25 to 0.5 µM | ≥ 5 µM | – | – | Cc1cc([C@@H](C)Nc2ccc(Cl)nc2C(=O)NS(C)(=O)=O)c2nc(N3C[C@@H]4C[C@H]3CN4c3ncc(C#N)cc3F)n(C)c(=O)c2c1 [Compound 579, 6-chloro-3-(((R)-1-(2-((1S,4S)-5-(5-cyano-3-fluoropyridin-2-yl)-2,5-diazabicyclo [2.2.1]heptan-2-yl)-3,6-dimethyl-4-oxo-3,4-dihydroquinazolin-8-yl)ethyl)amino)-N-(methylsulfonyl) picolinamide] |
| < 0.25 µM | ≥ 5 µM | – | – | Cc1cc([C@@H](C)Nc2ccc(Cl)nc2C(=O)NS(C)(=O)=O)c2nc(N3C[C@@H]4[C@H](C3)[C@H]4c3nn(C)c(C)c3F)n(C)c(=O)c2c1 [Compound 462, 6-chloro-3-(((R)-1-(2-((1R,5S,6R)-6-(4-fluoro-1,5-dimethyl-1H-pyrazol-3-yl)-3-azabicyclo[3.1.0]hexan-3-yl)-3,6-dimethyl-4-oxo-3,4-dihydroquinazolin-8-yl)ethyl)amino)-N-(methylsulfonyl) picolinamide] |
| 0.25 to 0.5 µM | ≥ 5 µM | – | – | Cc1cc([C@@H](C)Nc2ccc(Cl)nc2C(=O)NS(C)(=O)=O)c2nc(N3CCC(C)(c4cc[nH]n4)CC3)n(C)c(=O)c2c1 [Compound 552, (R)-6-chloro-3-((1-(3,6-dimethyl-2-(4-methyl-4-(1H-pyrazol-3-yl)piperidin-1-yl)-4-oxo-3,4-dihydroquinazolin-8-yl)ethyl)amino)-N-(methylsulfonyl) picolinamide] |
| 0.25 to 0.5 µM | ≥ 5 µM | – | – | Cc1cc([C@@H](C)Nc2ccc(Cl)nc2C(=O)NS(C)(=O)=O)c2nc(N3CCC(c4nn(C)c5ccccc45)CC3)n(C)c(=O)c2c1 [Compound 675, (R)-6-chloro-3-((1-(3,6-dimethyl-2-(4-(1-methyl-1H-indazol-3-yl)piperidin-1-yl)-4-oxo-3,4-dihydroquinazolin-8-yl)ethyl)amino)-N-(methylsulfonyl) picolinamide] |
| < 0.25 µM | 1 to 5 µM | – | – | COc1ncc([C@H]2[C@@H]3CN(c4nc5c([C@@H](C)Nc6ccc(Cl)nc6C(=O)NS(C)(=O)=O)cc(C)cc5c(=O)n4C)C[C@@H]32)cn1 [Compound 483, 6-chloro-3-(((R)-1-(2-((1R,5S,6S)-6-(2-methoxypyrimidin-5-yl)-3-azabicyclo[3.1.0]hexan-3-yl)-3,6-dimethyl-4-oxo-3,4-dihydroquinazolin-8-yl)ethyl)amino)-N-(methylsulfonyl) picolinamide] |
| < 0.25 µM | 1 to 5 µM | – | – | Cc1cc([C@@H](C)Nc2ccc(Cl)nc2C(=O)NS(C)(=O)=O)c2nc(N3CC[C@@H](Oc4ncc(F)cn4)C3)n(C)c(=O)c2c1 [Compound 538, 6-chloro-3-(((R)-1-(2-((R)-3-((5-fluoropyrimidin-2-yl)oxy)pyrrolidin-1-yl)-3,6-dimethyl-4-oxo-3,4-dihydroquinazolin-8-yl)ethyl)amino)-N-(methylsulfonyl) picolinamide] |
| < 0.25 µM | 1 to 5 µM | – | – | Cc1cc([C@@H](C)Nc2ccc(Cl)nc2C(=O)NS(C)(=O)=O)c2nc(N3Cc4cn(C5CC(F)(F)C5)nc4C3)n(C)c(=O)c2c1 [Compound 693, (R)-6-chloro-3-((1-(2-(2-(3,3-difluorocyclobutyl)-2,6-dihydropyrrolo[3,4-c]pyrazol-5(4H)-yl)-3,6-dimethyl-4-oxo-3,4-dihydroquinazolin-8-yl)ethyl)amino)-N-(methylsulfonyl) picolinamide] |
| 0.25 to 0.5 µM | 1 to 5 µM | – | – | Cc1cc([C@@H](C)Nc2ccc(Cl)nc2C(=O)NS(C)(=O)=O)c2nc(N3CCC(c4ncccn4)CC3)n(C)c(=O)c2c1 [Compound 500, (R)-6-chloro-3-((1-(3,6-dimethyl-4-oxo-2-(4-(pyrimidin-2-yl)piperidin-1-yl)-3,4-dihydroquinazolin-8-yl)ethyl)amino)-N-(methylsulfonyl) picolinamide] |
| 0.25 to 0.5 µM | ≥ 5 µM | – | – | Cc1cc([C@@H](C)Nc2ccc(Cl)nc2C(=O)NS(C)(=O)=O)c2nc(N3C[C@@H]4C[C@H]3CN4c3ccc(C#N)cn3)n(C)c(=O)c2c1 [Compound 580, 6-chloro-3-(((R)-1-(2-((1S,4S)-5-(5-cyanopyridin-2-yl)-2,5diazabicyclo [2.2.1]heptan-2-yl)-3,6-dimethyl-4-oxo-3,4-dihydroquinazolin-8-yl)ethyl)amino)-N-(methylsulfonyl) picolinamide] |
| 0.25 to 0.5 µM | 1 to 5 µM | – | – | Cc1cc([C@@H](C)Nc2ccc(Cl)nc2C(=O)NS(C)(=O)=O)c2nc(N3C[C@@H]4[C@H](C3)[C@H]4c3cc(C)[nH]n3)n(C)c(=O)c2c1 [Compound 510, 6-chloro-3-(((R)-1-(3,6-dimethyl-2-((1R,5S,6R)-6-(5-methyl-1H-pyrazol-3-yl)-3-azabicyclo[3.1.0]hexan-3-yl)-4-oxo-3,4-dihydroquinazolin-8-yl)ethyl)amino)-N-(methylsulfonyl) picolinamide] |
